According to patent publication US20220184080A1 (Aerovate Therapeutics, Inc., priority 2019, published 2022):

Test: thermal stability of imatinib salt forms
Format: physicochemical
Settings: method not described

thermal stability	Compound
suitable thermal stability	O=S(=O)(O)CCO [isethionate]
suitable thermal stability	malate
suitable thermal stability	malonate

Compound	thermal stability
tartrate	suitable thermal stability
